The experiment relates to HCV pseudoparticles, genotype 1a HCV E1 and E2 envelope (H77C isolate). Description: HCV pseudoparticle infection assay (luciferase reporter, Huh7 cells). It is filed as cell-based. The note with it: Hepatitis C virus, Huh-7, 48 h. For orientation: Reporter assays use an easily measured gene product as a stand-in for the process of interest.
Where [1] appears, read: read-out: EC50 (nM) 1a (H77C), class symbol, HCV pseudoparticles genotype 1a (H77C), luciferase 2 days after infection.
[2] abbreviates: read-out: EC50 (nM) 1a (H77C), numeric value, HCV pseudoparticles genotype 1a (H77C), luciferase 2 days after infection.

SMILES strings stand for the structures. Like-named read-outs stand apart in the source and are kept apart here.

What is called EC50 is the concentration that produces a half-maximal response. For the compound `CCN1CCCNC(=O)c2ccc(cc2)Nc2nc(nc(OCC(F)(F)F)n2)NCc2ccc(cc2)OCCC1` [Example 6026], under setting [1], the EC50 lay in the range of 0.1 to 100 nM. As for `CNC(=O)N1CCCCNC(=O)c2ccc(cc2)Nc2nc(nc(OCC(F)(F)F)n2)NCc2ccc(cc2)OCCC1` [Example 6021], under setting [1], the EC50 was in the range of 0.1 to 100 nM. Regarding `CN1CCCN(C)CCCN(C)C(=O)c2ccc(cc2)Nc2nc(nc(OCC(F)(F)F)n2)Nc2ccc(cc2)C(=O)N(C)CCC1` [Example 0024], the EC50 was 1000 to 5000 nM under setting [1] and 16300 nM under setting [2]. As to `CC(C)(C)OC(=O)N1CCCCNC(=O)c2ccc(cc2)Nc2nc(nc(OCC(F)(F)F)n2)NCc2ccc(cc2)OCC1` [Example 4016], the EC50 under setting [1] lay within 0.1 to 100 nM. As to `CC(C)(C)NC(=O)N1CCCCNC(=O)c2ccc(cc2)Nc2nc(nc(OCC(F)(F)F)n2)NCc2ccc(cc2)OCC1` [Example 4009], the EC50 under setting [1] lay within 0.1 to 100 nM and the EC50 under setting [2] came out at 8.47 nM. As for `CC(=O)N1CCCCCCCCNc2nc(nc(OCC(F)(F)F)n2)Nc2ccc(cc2)C(=O)NCCC1` [Example 9009], under setting [1], the EC50 is 0.1 to 100 nM. On the same count and under the same terms, the same measure for `CNC(=O)N1CCCCNC(=O)c2ccc(cc2)Nc2nc(nc(OCC(F)(F)F)n2)NCc2ccc(cc2)OCC1` [Example 4006]: 0.1 to 100 nM. Consider `O=C1NCc2ccc(cc2)Nc2nc(nc(OCC(F)(F)F)n2)NCc2cccc(c2)CNC(=O)c2ccccc21` [Example 0059], for which the EC50 under setting [1] lay in the range of 0.1 to 100 nM. The same measure, in the same setting: the figure for `O=C1NCCCN2CCN(CCCNC(=O)c3ccc(cc3)Nc3nc(nc(OCC(F)(F)F)n3)NCc3ccc1cc3)CC2` [Example 0039] is 100 to 1000 nM; for `O=C1COCC(=O)NCc2cccc(c2)CNc2nc(nc(OCC(F)(F)F)n2)Nc2ccc(cc2)CN1` [Example 0070] it is 0.1 to 100 nM; for `O=C1CNC(=O)c2ccc(cc2)Nc2nc(nc(OCC(F)(F)F)n2)NCc2ccc(cc2)NC(=O)CN1` [Example 3002] it is 100 to 1000 nM. As to `CC(=O)N1CCCCOc2ccc(cc2)CNc2nc(nc(OCC(F)(F)F)n2)Nc2ccc(cc2)C(=O)NCCC1` [Example 4018], the EC50 under setting [1] was in the range of 0.1 to 100 nM. Still for that read-out and setting: the figure for `CC(C)C(=O)N1CCCCNC(=O)c2ccc(cc2)Nc2nc(nc(OCC(F)(F)F)n2)NCc2ccc(cc2)OCC1` [Example 4004] is 0.1 to 100 nM; for `CC(C)NC(=O)N1CCCOc2ccc(cc2)CNc2nc(nc(OCC(F)(F)F)n2)Nc2ccc(cc2)C(=O)NCC(C)(C)C1` [Example 6037] it is 0.1 to 100 nM; for `CCN1CCCOc2ccc(cc2)CNc2nc(nc(OCC(F)(F)F)n2)Nc2ccc(cc2)C(=O)NCC(C)(C)C1` [Example 6041] it is 0.1 to 100 nM. On the same count and under the same terms, the same measure for `CCC(=O)N1CCCCNC(=O)c2ccc(cc2)Nc2nc(nc(OCC(F)(F)F)n2)NCc2ccc(cc2)OCC1` [Example 4003]: 0.1 to 100 nM; for `CCCOC(=O)N1CCCOc2ccc(cc2)CNc2nc(nc(OCC(F)(F)F)n2)Nc2ccc(cc2)C(=O)NCC(C)(C)C1` [Example 6034]: 0.1 to 100 nM.

As for `O=C1NCCCNCCCOc2ccc(cc2)CNc2nc(nc(OCC(F)(F)F)n2)Nc2ccc1cc2` [Example 6011], under setting [1], the EC50 lay within 0.1 to 100 nM. The same measure, in the same setting: the figure for `CN1CCNC(=O)c2ccc(cc2)CNc2nc(nc(OCC(F)(F)F)n2)Nc2ccc(cc2)C(=O)NCC1` [Example 0042] is 100 to 1000 nM. The same measure, in the same setting: the same measure for `O=C1NCCCCCCNC(=O)NCc2ccc(cc2)Nc2nc(nc(OCC(F)(F)F)n2)NCc2ccc(cc2)CN1` [Example 0055]: 100 to 1000 nM; for `CC(C)(C)NC(=O)N1CCCCNC(=O)c2ccc(cc2)Nc2nc(nc(OCC(F)(F)F)n2)NCc2ccc(cc2)OCCC1` [Example 6023]: 0.1 to 100 nM.

Regarding `CC(C)NC(=O)N1CCCCNC(=O)c2ccc(cc2)Nc2nc(nc(OCC(F)(F)F)n2)NCc2ccc(cc2)OCC1` [Example 4008], under setting [1], the EC50 lay within 0.1 to 100 nM.

Turning to `O=C1NCCCCNC(=O)NCc2ccc(cc2)Nc2nc(nc(OCC(F)(F)F)n2)NCc2ccc(cc2)CN1` [Example 0053], the EC50 under setting [1] fell in the range of 100 to 1000 nM. The same measure, in the same setting: the same measure for `CC(C)OC(=O)N1CCCOc2ccc(cc2)CNc2nc(nc(OCC(F)(F)F)n2)Nc2ccc(cc2)C(=O)NCC(C)(C)C1` [Example 6035]: 0.1 to 100 nM.

These data come from patent EP2697230B1, “COMPOUNDS FOR THE TREATMENT OF HEPATITIS C” (priority 2011, dated 2012).
